Here are results for 2 molecules from PMC3313020 (Cancer Chemotherapy and Pharmacology, 2011).

A short description of data set [1]: Steady-state plasma pharmacokinetics. The format is in vivo, human.
For data set [2] the following is noted: single-agent enzastaurin 525 mg orally daily; cited from earlier work.
In the next data set the test system is metastatic NSCLC. The note with it: single agent, second- or third-line; cited from earlier work.
The next data set relates to NSCLC. The following applies: cited from earlier work.
A further data set relates to advanced NSCLC. The note with it: advanced NSCLC progressed after first-line chemotherapy; cited from earlier work.
The mark [3] stands for this setting: 150 mg erlotinib daily with 250 mg enzastaurin, geometric mean (CV%), n 3.
Where [4] appears, read: 150 mg erlotinib daily with 500 mg enzastaurin, geometric mean (CV%), n 11.

One may read the Tmax as the time from dosing to the highest level. As a reminder, the AUC is concentration integrated over time. A lower AUC goes with low exposure. In general, Cmax refers to the highest concentration seen after dosing.

Values joined by “and” are separate entries in the source; they are usually repeats but may differ in a detail not shown here. Identical values can stand only once. Like-named read-outs stand apart in the source and are kept apart here.

On to `Cn1cc(C2=C(c3cn(C4CCN(Cc5ccccn5)CC4)c4ccccc34)C(=O)NC2=O)c2ccccc21` [Enzastaurin], for which, in data set [1] (enzastaurin 500 mg once daily with erlotinib 150 mg daily, geometric mean (CV%), N 12), the “C av,ss” value is 750 (71) nmol/L. For the same molecule, the time to peak (Tmax) in data set [1] (human, plasma, oral) turned out to be 4.04 h. The molecule also displayed an AUC in data set [1] (human, plasma, oral, AUCτ,ss, enzastaurin 500 mg once daily with erlotinib 150 mg daily, geometric mean (CV%), N 12) of 18 µM·h. Also, the concentration in data set [1] (human, plasma, oral, C max,ss, enzastaurin 500 mg once daily with erlotinib 150 mg daily, geometric mean (CV%), N 12) peaked (Cmax) at 1600 nM. Also, in data set [2], the “AUCτ,ss” value is 23,600 nmol × h/L and the CLss/F was 40.3 L/h. In the data set on metastatic NSCLC, the “patients with prolonged stabilization >6 months” value was 11%.

For the molecule `C#Cc1cccc(Nc2ncnc3cc(OCCOC)c(OCCOC)cc23)c1` [erlotinib], in data set [1] (setting [3]), the “C av,ss” value was 1,030 (19) ng/mL; the CLss/F was 6.07 L/h and 6.07 (19) L/h. In data set [1] (setting [4]), the “C av,ss” value is on record as 1,090 (45) ng/mL; the CLss/F is 5.75 L/h and 5.75 (45) L/h. The “hazard ratio (overall survival vs placebo)” value in the data set on NSCLC (P < 0.001) is 0.70. Moreover, the response rate in the data set on NSCLC (unselected population, vs placebo <1%, P < 0.001) was 8.9%. For the same molecule, the overall survival in the data set on NSCLC (vs placebo 4.7 months) is recorded as 6.7 months. Also, the overall response rate in the data set on advanced NSCLC is 6.2%.
